Data as given in ChEMBL document CHEMBL1221321, “Synthesis and properties of macrolones characterized by two ether bonds in the linker” (Bioorg Med Chem, 2010).
pIC50: −log10 of the molar value. In brackets after ≈: the same amount, converted by molar mass.

Columns and labels:
Streptococcus pneumoniae [1] = assay: Antibacterial activity against efflux-mediated macrolide-resistance Streptococcus pneumoniae Ci137 by broth microdilution method; assay type: functional; conditions: read-out: MIC
Staphylococcus aureus [2] = assay: Antibacterial activity against inducible resistance to macrolide, licosamide, and streptogramin Staphylococcus aureus 90265/97 by broth microdilution method; assay type: functional
Streptococcus pyogenes [3] = assay: Antibacterial activity against inducible resistance to macrolide, licosamide and streptogramin Streptococcus pyogenes 11 by broth microdilution method; assay type: functional; conditions: read-out: MIC
Haemophilus influenzae = assay: Antibacterial activity against Haemophilus influenzae ATCC 49247 by broth microdilution method; assay type: functional
Streptococcus pyogenes [4] = assay: Antibacterial activity against efflux-mediated macrolide-resistance Streptococcus pyogenes 2 by broth microdilution method; assay type: functional
Staphylococcus aureus [5] = assay: Antibacterial activity against efflux-mediated macrolide-resistance Staphylococcus aureus PK1 by broth microdilution method; assay type: functional
Streptococcus pyogenes [6] = assay: Antibacterial activity against constitutive MLS resistance Streptococcus pyogenes 166 GR-Micro by broth microdilution method; assay type: functional
HepG2 = assay: Cytotoxicity against human HepG2 cells after 24 hrs by MTS assay; assay type: cell-based; conditions: HepG2, 24 h
THP-1 = assay: Cytotoxicity against human THP1 cells after 24 hrs by MTS assay; assay type: cell-based; conditions: THP-1, 24 h
Streptococcus pneumoniae [7] = assay: Antibacterial activity against inducible resistance to macrolide and constitutive resistance to lincosamide Streptococcus pneumoniae 134 GR M by broth microdilution method; assay type: functional
Streptococcus pneumoniae [8] = assay: Antibacterial activity against constitutive MLS resistance Streptococcus pneumoniae 58 by broth microdilution method; assay type: functional

Row | Structure (SMILES) | MIC (Streptococcus pneumoniae [1]) | MIC (Staphylococcus aureus [2]) | MIC (Streptococcus pyogenes [3]) | MIC (Haemophilus influenzae) | MIC (Streptococcus pyogenes [4]) | MIC (Staphylococcus aureus [5]) | MIC (Streptococcus pyogenes [6]) | pIC50 (HepG2) | pIC50 (THP-1) | MIC (Streptococcus pneumoniae [7]) | MIC (Streptococcus pneumoniae [8])
1 | CC[C@H]1OC(=O)[C@H](C)[C@@H](O[C@H]2C[C@@](C)(OC)[C@@H](OCCCOCCCCc3ccc4c(c3)c(=O)c(C(=O)O)cn4N(C)C)[C@H](C)O2)[C@H](C)[C@@H](O[C@@H]2O[C@H](C)C[C@H](N(C)C)[C@H]2O)[C@](C)(O)C[C@@H](C)CN(C)[C@H](C)[C@@H](O)[C@]1(C)O | ≤ 0.125 µg/mL | ≤ 0.125 µg/mL | ≤ 0.125 µg/mL | 4 µg/mL (≈ 3.66 µM) | ≤ 0.125 µg/mL | ≤ 0.125 µg/mL | 0.5 µg/mL (≈ 0.457 µM) | 4.38 | 4.70 | 0.5 µg/mL (≈ 0.457 µM) | 0.25 µg/mL (≈ 0.229 µM)
2 | CCCn1cc(C(=O)O)c(=O)c2cc(CCCOCCCO[C@H]3[C@H](C)O[C@@H](O[C@H]4[C@H](C)[C@@H](O[C@@H]5O[C@H](C)C[C@H](N(C)C)[C@H]5O)[C@](C)(O)C[C@@H](C)CN(C)[C@H](C)[C@@H](O)[C@](C)(O)[C@@H](CC)OC(=O)[C@@H]4C)C[C@@]3(C)OC)ccc21 | ≤ 0.125 µg/mL | 0.25 µg/mL (≈ 0.232 µM) | ≤ 0.125 µg/mL | 2 µg/mL (≈ 1.85 µM) | ≤ 0.125 µg/mL | ≤ 0.125 µg/mL | 0.25 µg/mL (≈ 0.232 µM) | 4.40 | 4.74 | ≤ 0.125 µg/mL | ≤ 0.125 µg/mL
3 | CC[C@H]1OC(=O)[C@H](C)[C@@H](O[C@H]2C[C@@](C)(OC)[C@@H](OCCCOCCCc3ccc4c(c3)c(=O)c(C(=O)O)cn4CC)[C@H](C)O2)[C@H](C)[C@@H](O[C@@H]2O[C@H](C)C[C@H](N(C)C)[C@H]2O)[C@](C)(O)C[C@@H](C)CN(C)[C@H](C)[C@@H](O)[C@]1(C)O | ≤ 0.125 µg/mL | ≤ 0.125 µg/mL | ≤ 0.125 µg/mL | 1 µg/mL (≈ 0.94 µM) | ≤ 0.125 µg/mL | ≤ 0.125 µg/mL | ≤ 0.125 µg/mL | < 4.30 | < 4.30 | ≤ 0.125 µg/mL | ≤ 0.125 µg/mL
